Results reported in patent publication US7468384B2, “Microbicidal composition” (Rohm and Haas Company, priority 2004, dated 2008).
Like-named read-outs stand apart in the source and are kept apart here.

How the values were obtained:
Type in all cases: cell-based
[1] = test system: Candida albicans (C. albicans—ATCC 10231); assay: Synergy test, microtiter plate high resolution MIC assay, yeast; details: C. albicans 10231, PDB; for MIC: Candida albicans, ATCC10231; for Qb: alone or mixed with BIT
Description: (§1) One measure of synergism is the industrially accepted method described by Kull, F. C.; Eisman, P. C.; Sylwestrowicz, H. D. and Mayer, R. L., in Applied Microbiology 9:538-541 (1961), using the ratio determined by the formula: Qa/QA+Qb/QB=Synergy Index (“SI”) wherein: • QA=concentration of compound A (first component) in ppm, acting alone, which produced an end point (MIC of Compound A). • Qa=concentration of compound A in ppm, in the mixture, which produced an end point. • QB=concentration of compound B (second component) in ppm, acting alone, which produced an end point (MIC of Compound B). • Qb=concentration of compound B in ppm, in the mixture, which produced an end point.
(§2) When the sum of Qa/QA and Qb/QB is greater than one, antagonism is indicated. […] The lower the SI, the greater the synergy shown by that particular mixture. The minimum inhibitory concentration (MIC) of a microbicide is the lowest concentration tested under a specific set of conditions that prevents the growth of added microorganisms.
(§3) Synergy tests were conducted using standard microtiter plate assays with media designed for optimal growth of the test microorganism. Soybean Casein Digest Broth (Tryptic Soy Broth, TSB medium) or minimal salt medium supplemented with 0.2% glucose and 0.1% yeast extract (M9GY medium) was used for testing bacteria; Potato Dextrose Broth (PDB medium) was used for testing yeast and mold. In this method, a wide range of combinations of microbicides was tested by conducting high resolution MIC assays in the presence of various concentrations of MI. High resolution MICs were determined by adding varying amounts of microbicide to one column of a microtitre plate and doing subsequent ten-fold dilutions using an automated liquid handling system to obtain a series of endpoints ranging from 2 ppm to 10,000 ppm active ingredient.
(§4) For MI combinations, the synergy of the combinations of the present invention was determined against two bacteria, Escherichia coli (E. coli—ATCC #8739) or Pseudomonas aeruginosa (P. aeruginosa—ATCC #15442), a yeast, Candida albicans (C. albicans—ATCC 10231), and a mold, Aspergillus niger (A. niger—ATCC 16404). The bacteria were used at a concentration of about 5×10^6 bacteria per mL and the yeast and mold at 5×10^5 fungi per mL. These microorganisms are representative of natural contaminants in many consumer and industrial applications. […] (bacteria).
(§5) For BIT combinations, the synergy of the combinations of the present invention was determined against a bacterium, Pseudomonas aeruginosa (P. aeruginosa—ATCC #15442), a yeast, Candida albicans (C. albicans—ATCC 10231), and a mold, Aspergillus niger (A. niger—ATCC 16404). The bacteria were used at a concentration of about 5×10^6 bacteria per mL and the yeast and mold at 5×10^5 fungi per mL. These microorganisms are representative of natural contaminants in many consumer and industrial applications. […] (yeast and mold) or 30° C. (bacteria).

[2] = test system: Pseudomonas aeruginosa (P. aeruginosa—ATCC #15442); assay: Synergy test, microtiter plate high resolution MIC assay, bacterium; design: key to SI (calculated synergy index) / SI (synergy index): SI = Qa/QA + Qb/QB (mixture vs. alone end-point concentrations); details: for MIC: Pseudomonas aeruginosa, ATCC15442; for Qb: alone or mixed with BIT; for SI (calculated synergy index) / Qb: end-point activity (MIC) of second component in the mixture (alone, QB, where Qa = 0): Table 6; for Qb: end-point activity (MIC) of second component in the mixture (alone, QB, where Qa = 0): B = Cocamidopropyl PG-dimonium chloride phosphate
Description: as §1, §2, §3, §4, §5

S. aureus 6538 = assay: as above; details: S. aureus 6538, TSB
Description: as §1, §2, §3

[3] = test system: Aspergillus niger (A. niger—ATCC 16404); assay: Synergy test, microtiter plate high resolution MIC assay, mold; design: key to SI (calculated synergy index) / SI (synergy index): SI = Qa/QA + Qb/QB (mixture vs. alone end-point concentrations); details: A. niger 16404, PDB; for MIC: Aspergillus niger, ATCC16404, 72 h
Description: as §1, §2, §3, §4, §5

[4] = test system: Escherichia coli (E. coli—ATCC #8739); assay: Synergy test, microtiter plate high resolution MIC assay, bacterium; details: E. coli 8739, M9GY; for Qb: alone or mixed with BIT
Description: as §1, §2
as §3, with “In this method, a wide range of combinations of microbicides was tested by conducting high resolution MIC assays in the presence of various concentrations of MI.” left out
as §4

[5] = glutaraldehyde concentration giving end point (MIC), 24 hours
[6] = synergy index BIT + glutaraldehyde, 24 hours
[7] = Table 6, 24 hours, B = Cocamidopropyl PG-dimonium chloride phosphate
[8] = P. aeruginosa 15442, M9GY, 72 hours
[9] = P. aeruginosa 15442, TSB, 48 hours

N=C(N)c1ccc(OCCCCCCOc2ccc(C(=N)N)cc2)cc1.O=S(=O)(O)CCO.O=S(=O)(O)CCO [Hexamidine diisethionate]
MIC of component acting alone (QA / QB) ([1]; 48 hours): 2000 ppm | MIC of component acting alone (QA / QB) ([2]; P. aeruginosa 15442, TSB, 72 hours): 2000 ppm | MIC of component acting alone (QA / QB) (S. aureus 6538; 72 hours): 4000 ppm

CCCCC(CC)CN1CN(CC(CC)CCCC)CC(C)(N)C1 (stereo not shown) [Hexetidine]
MIC ([1]; 72 hours, read-out: MIC of component acting alone (QA / QB)): 2000 µg/mL | MIC ([2]; P. aeruginosa 15442, TSB, 24 hours, read-out: MIC of component acting alone (QA / QB)): 10000 µg/mL | MIC (S. aureus 6538; Staphylococcus aureus, 48 hours, read-out: MIC of component acting alone (QA / QB)): 4 µg/mL

Cl/C=C\C[N+]12CN3CN(CN(C3)C1)C2.[Cl-] [cis-1-(3-chloroallyl)-3,5,7-triaza-1-azoniaadamantane chloride]
MIC ([3]; Table 24, Cis-1-(3-chloroallyl)-3,5,7-triaza-1-azoniaadamantane chloride with BIT, 3 days, alone where Qa = 0, read-out: Qb (second component at end point, MIC)): 800 µg/mL | SI (synergy index) ([3]; Table 24, 3 days): 1.00 | MIC ([1]; Table 24, Cis-1-(3-chloroallyl)-3,5,7-triaza-1-azoniaadamantane chloride with BIT, 24 hours, alone where Qa = 0, read-out: Qb (second component at end point, MIC)): 800 µg/mL | SI (synergy index) ([1]; Table 24, 24 hours): 1.00 | MIC ([2]; Table 24, Cis-1-(3-chloroallyl)-3,5,7-triaza-1-azoniaadamantane chloride with BIT, P. aeruginosa 15442, M9GY, 24 hours, alone where Qa = 0, read-out: Qb (second component at end point, MIC)): 400 µg/mL | SI (synergy index) ([2]; Table 24, P. aeruginosa 15442, M9GY, 24 hours): 1.00 | MIC ([4]; Escherichia coli, ATCC8739, Table 24, Cis-1-(3-chloroallyl)-3,5,7-triaza-1-azoniaadamantane chloride with BIT, 48 hours, alone where Qa = 0, read-out: Qb (second component at end point, MIC)): 400 µg/mL | SI (synergy index) ([4]; Table 24, 48 hours): 1.00

O=CCCCC=O [glutaraldehyde]
MIC ([3]; glutaraldehyde concentration giving end point (MIC), alone or mixed with BIT, 3 days, read-out: Qb): 400 µg/mL | SI ([3]; synergy index BIT + glutaraldehyde, 3 days): 1.00 | Qb [1, 5]: 30 ppm | SI [1, 6]: 1.00 | Qb ([2]; glutaraldehyde concentration giving end point (MIC), P. aeruginosa 15442, M9GY, 48 hours): 60 ppm | SI ([2]; synergy index BIT + glutaraldehyde, P. aeruginosa 15442, M9GY, 48 hours): 1.00 | Qb [4, 5]: 50 ppm | SI [4, 6]: 1.00

O=C([O-])c1ccccc1.[Na+] [sodium benzoate]
SI (synergy index) ([3]; Table 26, 1 week): 1.00 | Qb (second component at end point, MIC) ([3]; Table 26, sodium benzoate with BIT, 1 week, alone where Qa = 0): 6000 ppm | SI (synergy index) ([1]; Table 26, 48 hours): 1.00 | Qb (second component at end point, MIC) ([1]; Table 26, sodium benzoate with BIT, 48 hours, alone where Qa = 0): 2000 ppm | SI (synergy index) ([2]; Table 26, P. aeruginosa 15442, M9GY, 24 hours): 1.00 | Qb (second component at end point, MIC) ([2]; Table 26, sodium benzoate with BIT, P. aeruginosa 15442, M9GY, 24 hours, alone where Qa = 0): 10000 ppm | SI (synergy index) ([4]; Table 26, 24 hours): 1.00 | Qb (second component at end point, MIC) ([4]; Table 26, sodium benzoate with BIT, 24 hours, alone where Qa = 0): 10000 ppm

Cocamidopropyl PG-dimonium chloride phosphate
SI (calculated synergy index) ([3]; Table 6, 4 days): 1.00 | Qb: end-point activity (MIC) of second component in the mixture (alone, QB, where Qa = 0) ([3]; Table 6, 4 days, B = Cocamidopropyl PG-dimonium chloride phosphate): 1000 ppm | SI (synergy index) ([3]; Table 22, 1 week): 1.00 | Qb (second component at end point, MIC) ([3]; Table 22, Cocamidopropyl PG-dimonium chloride phosphate with BIT, 1 week, alone where Qa = 0): 3000 ppm | SI (calculated synergy index) ([1]; Table 6, 24 hours): 1.00 | Qb: end-point activity (MIC) of second component in the mixture (alone, QB, where Qa = 0) [1, 7]: 100 ppm | SI (calculated synergy index) [2, 8]: 1.00 | Qb: end-point activity (MIC) of second component in the mixture (alone, QB, where Qa = 0) [2, 8]: 30 ppm | SI (calculated synergy index) [2, 9]: 1.00 | Qb: end-point activity (MIC) of second component in the mixture (alone, QB, where Qa = 0) [2, 9]: 1000 ppm | Qb (second component at end point, MIC) ([2]; Table 22, Cocamidopropyl PG-dimonium chloride phosphate with BIT, P. aeruginosa 15442, M9GY, 72 hours, alone where Qa = 0): 40 ppm | SI (synergy index) ([2]; Table 22, P. aeruginosa 15442, M9GY, 72 hours): 1.00 | SI (calculated synergy index) (S. aureus 6538; Table 6, 24 hours): 1.00 | Qb: end-point activity (MIC) of second component in the mixture (alone, QB, where Qa = 0) (S. aureus 6538; [7]): 30 ppm

imidazolidinyl urea [Imidalozidinyl urea]
Qb ([3]; Imidalozidinyl urea concentration giving end point (MIC), alone or mixed with BIT, 3 days): 8000 ppm | SI ([3]; synergy index BIT + Imidalozidinyl urea, 3 days): 1.00 | Qb ([1]; Imidalozidinyl urea concentration giving end point (MIC), 24 hours): 10000 ppm | SI ([1]; synergy index BIT + Imidalozidinyl urea, 24 hours): 1.00 | Qb ([2]; Imidalozidinyl urea concentration giving end point (MIC), P. aeruginosa 15442, M9GY, 48 hours): 400 ppm | SI ([2]; synergy index BIT + Imidalozidinyl urea, P. aeruginosa 15442, M9GY, 48 hours): 1.00 | Qb ([4]; Imidalozidinyl urea concentration giving end point (MIC), 48 hours): 400 ppm | SI ([4]; synergy index BIT + Imidalozidinyl urea, 48 hours): 1.00
